Reference: patent publication US10294207B2, “Pyrazole derivatives as TNIK, IKKϵ and TBK1 inhibitor and pharmaceutical composition comprising same” (GREEN CROSS CORPORATION, priority 2015, dated 2019)

Experiments:
[1] = molecular target: T1, IKKε (Homo sapiens, UniProt Q14164); assay: IKKε inhibition, ADP-Glo Kinase Assay; type: biochemical; conditions: luminometer
T1 construct: purchased Invitrogen PR8031B
T1 sequence (Q14164 1-716): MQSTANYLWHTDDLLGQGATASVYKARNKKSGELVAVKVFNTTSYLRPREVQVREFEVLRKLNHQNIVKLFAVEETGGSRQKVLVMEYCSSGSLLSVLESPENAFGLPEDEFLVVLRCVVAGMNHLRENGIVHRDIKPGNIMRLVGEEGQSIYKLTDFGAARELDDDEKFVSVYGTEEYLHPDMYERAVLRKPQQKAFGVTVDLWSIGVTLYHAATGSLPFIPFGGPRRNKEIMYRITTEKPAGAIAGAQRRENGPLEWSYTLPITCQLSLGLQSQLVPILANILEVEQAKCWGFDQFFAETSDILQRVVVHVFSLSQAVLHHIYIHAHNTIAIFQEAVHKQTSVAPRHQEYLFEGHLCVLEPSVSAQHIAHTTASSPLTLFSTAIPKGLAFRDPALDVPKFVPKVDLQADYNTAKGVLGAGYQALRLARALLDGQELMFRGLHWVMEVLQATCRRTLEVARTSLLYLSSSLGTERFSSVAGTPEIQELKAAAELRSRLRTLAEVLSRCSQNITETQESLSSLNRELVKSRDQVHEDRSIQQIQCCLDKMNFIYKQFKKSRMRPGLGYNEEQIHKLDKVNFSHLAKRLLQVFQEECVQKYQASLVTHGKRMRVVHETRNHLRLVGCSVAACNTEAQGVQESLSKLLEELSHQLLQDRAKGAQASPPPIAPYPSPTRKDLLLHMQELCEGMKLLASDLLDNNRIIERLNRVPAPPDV
Procedure, shortened: (§1)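 ADP-Glo luminescence reported ADP produced by each kinase, following the kit protocol. Reactions used commercial kinase enzyme systems in buffer of 40 mM Tris (pH 7.5), 20 mM MgCl2 and 0.1 mg/mL BSA.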

[2] = molecular target: T2, TBK1 (Homo sapiens, UniProt Q9UHD2); assay: TBK1 inhibition, ADP-Glo Kinase Assay; type: biochemical; conditions: luminometer
T2 construct: purchased Promega V3991
T2 sequence (Q9UHD2 1-729): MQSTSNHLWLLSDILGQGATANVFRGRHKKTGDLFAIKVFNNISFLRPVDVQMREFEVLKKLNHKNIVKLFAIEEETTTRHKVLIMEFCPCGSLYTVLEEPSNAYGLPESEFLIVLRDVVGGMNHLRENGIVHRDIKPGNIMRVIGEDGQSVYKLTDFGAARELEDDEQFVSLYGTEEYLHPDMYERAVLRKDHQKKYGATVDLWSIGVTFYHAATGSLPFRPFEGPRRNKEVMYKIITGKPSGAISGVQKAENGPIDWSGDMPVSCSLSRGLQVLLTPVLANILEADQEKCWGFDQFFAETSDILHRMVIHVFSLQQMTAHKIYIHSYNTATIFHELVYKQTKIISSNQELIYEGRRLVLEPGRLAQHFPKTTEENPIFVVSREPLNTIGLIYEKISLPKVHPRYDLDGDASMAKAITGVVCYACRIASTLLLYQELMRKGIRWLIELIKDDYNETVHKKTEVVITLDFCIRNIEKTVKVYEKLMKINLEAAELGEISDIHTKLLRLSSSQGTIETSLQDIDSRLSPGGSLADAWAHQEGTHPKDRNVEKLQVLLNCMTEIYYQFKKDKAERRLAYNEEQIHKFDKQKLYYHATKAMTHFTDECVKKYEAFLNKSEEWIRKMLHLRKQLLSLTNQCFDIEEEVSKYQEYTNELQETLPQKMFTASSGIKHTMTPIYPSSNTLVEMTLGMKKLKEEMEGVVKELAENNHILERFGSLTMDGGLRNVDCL
Procedure, shortened: as §1

| IC50 [1] [µM] | IC50 [2] [µM] | SMILES |
| --- | --- | --- |
| 0.014 | 0.0027 | CCC(NC(=O)c1ccc2[nH]nc(NC(=O)c3ccc(N4C[C@@H](C)N[C@@H](C)C4)cc3)c2c1)c1cccs1 (stereo partly drawn) [Example 99, 3-(4-((3R,5S)-3,5-Dimethylpiperazin-1-yl)benzamido)-N-(1-(thiophen-2-yl)propyl)-1H-indazole-5-carboxamide 2,2,2-trifluoroacetate] |
| 0.95 | 0.22 | Cc1noc(CNC(=O)c2ccc3[nH]nc(NC(=O)c4ccc(N5CCOCC5)cc4)c3c2)n1 [Example 100, N-((3-Methyl-1,2,4-oxadiazol-5-yl)methyl)-3-(4-morpholinobenzamido)-1H-indazole-5-carboxamide 2,2,2-trifluoroacetate] |
| 0.96 | 0.15 | Cc1noc(CNC(=O)c2ccc3[nH]nc(NC(=O)c4ccc(N5CCN(C)CC5)cc4)c3c2)n1 [Example 101, N-((3-Methyl-1,2,4-oxadiazol-5-yl)methyl)-3-(4-(4-methylpiperazin-1-yl)benzamido)-1H-indazole-5-carboxamide 2,2,2-trifluoroacetate] |
| 0.025 | 0.0058 | CCC(NC(=O)c1ccc2[nH]nc(NC(=O)c3ccc(N4CCNCC4)cc3)c2c1)c1cccs1 (stereo not drawn) [Example 102, 3-(4-(Piperazin-1-yl)benzamido)-N-(1-(thiophen-2-yl)propyl)-1H-indazole-5-carboxamide] |
| 0.44 | 0.02 | CN1CCN(c2ccc(C(=O)Nc3n[nH]c4ccc(C(=O)NCc5nccs5)cc34)cc2)CC1 [Example 103, 3-(4-(4-Methylpiperazin-1-yl)benzamido)-N-(thiazol-2-ylmethyl)-1H-indazole-5-carboxamide 2,2,2-trifluoroacetate] |
| 0.37 | 0.026 | O=C(NCc1nccs1)c1ccc2[nH]nc(NC(=O)c3ccc(N4CCOCC4)cc3)c2c1 [Example 104, 3-(4-Morpholinobenzamido)-N-(thiazol-2-ylmethyl)-1H-indazole-5-carboxamide 2,2,2-trifluoroacetate] |
| 1.14 | 0.1 | O=C(NCc1ncon1)c1ccc2[nH]nc(NC(=O)c3ccc(N4CCOCC4)cc3)c2c1 [Example 105, N-((1,2,4-Oxadiazol-3-yl)methyl)-3-(4-morpholinobenzamido)-1H-indazole-5-carboxamide 2,2,2-trifluoroacetate] |
| 0.15 | 0.023 | CN1CCN(c2ccc(C(=O)Nc3n[nH]c4ccc(C(=O)NCC5CCC5)cc34)cc2)CC1 [Example 106, N-(Cyclobutylmethyl)-3-(4-(4-methylpiperazin-1-yl)benzamido)-1H-indazole-5-carboxamide] |
| 0.015 | 0.0028 | CCC(NC(=O)c1ccc2[nH]nc(NC(=O)c3ccc(N4CCC(O)CC4)cc3)c2c1)c1cccs1 (stereo not drawn) [Example 108, 3-(4-(4-Hydroxypiperidin-1-yl)benzamido)-N-(1-(thiophen-2-yl)propyl)-1H-indazole-5-carboxamide] |
| 0.025 | 0.0036 | CCC(NC(=O)c1ccc2[nH]nc(NC(=O)c3ccc(N4CCN(CC)CC4)cc3)c2c1)c1cccs1 (stereo not drawn) [Example 109, 3-(4-(4-Ethylpiperazin-1-yl)benzamido)-N-(1-(thiophen-2-yl)propyl)-1H-indazole-5-carboxamide] |
| 0.036 | 0.0072 | CCC(NC(=O)c1ccc2[nH]nc(NC(=O)c3ccc(N4CCC(OC)CC4)cc3)c2c1)c1cccs1 (stereo not drawn) [Example 110, 3-(4-(4-methoxypiperidin-1-yl)benzamido)-N-(1-(thiophen-2-yl)propyl)-1H-indazole-5-carboxamide] |
| 0.074 | 0.014 | CC[C@H](NC(=O)c1ccc2[nH]nc(NC(=O)c3ccc(N4CCN(C)CC4)cc3)c2c1)c1cccs1 [Example 111, (S)-3-(4-(4-Methylpiperazin-1-yl)benzamido)-N-(1-(thiophen-2-yl)propyl)-1H-indazole-5-carboxamide] |
| 0.011 | 0.0042 | CC[C@@H](NC(=O)c1ccc2[nH]nc(NC(=O)c3ccc(N4CCN(C)CC4)cc3)c2c1)c1cccs1 [Example 112, (R)-3-(4-(4-Methylpiperazin-1-yl)benzamido)-N-(1-(thiophen-2-yl)propyl)-1H-indazole-5-carboxamide] |
| 0.18 | 0.018 | CCCCNC(=O)c1ccc2[nH]nc(NC(=O)c3ccc(N4CCN(C)CC4)cc3)c2c1 [Example 113, N-Butyl-3-(4-(4-methylpiperazin-1-yl)benzamido)-1H-indazole-5-carboxamide 2,2,2-trifluoroacetate] |
| 0.41 | 0.082 | CC(C)CCNC(=O)c1ccc2[nH]nc(NC(=O)c3ccc(N4CCN(C)CC4)cc3)c2c1 [Example 114, N-Isopentyl-3-(4-(4-methylpiperazin-1-yl)benzamido)-1H-indazole-5-carboxamide 2,2,2-trifluoroacetate] |
| 0.97 | 0.071 | CCCCNC(=O)c1ccc2[nH]nc(NC(=O)c3ccc(N4CCOCC4)cc3)c2c1 [Example 115, N-Butyl-3-(4-morpholinobenzamido)-1H-indazole-5-carboxamide 2,2,2-trifluoroacetate] |
| 3.12 | 0.48 | CC(C)CCNC(=O)c1ccc2[nH]nc(NC(=O)c3ccc(N4CCOCC4)cc3)c2c1 [Example 116, N-Isopentyl-3-(4-morpholinobenzamido)-1H-indazole-5-carboxamide 2,2,2-trifluoroacetate] |
| 0.071 | 0.0033 | C[C@H]1CN(c2ccc(C(=O)Nc3n[nH]c4ccc(C(=O)NCc5cccs5)cc34)cc2)CCN1 [Example 117, (S)-3-(4-(3-Methylpiperazin-1-yl)benzamido)-N-(thiophen-2-ylmethyl)-1H-indazole-5-carboxamide 2,2,2-trifluoroacetate] |
| 1.96 | 0.3 | CN1CCN(c2ccc(C(=O)Nc3n[nH]c4ccc(C(=O)NCc5ncon5)cc34)cc2)CC1 [Example 118] |
| 1.24 | 0.46 | O=C(NCc1c[nH]nn1)c1ccc2[nH]nc(NC(=O)c3ccc(N4CCOCC4)cc3)c2c1 [Example 119] |
| 0.11 | 0.0063 | CN1CCN(c2ccc(C(=O)Nc3n[nH]c4ccc(C(=O)NCc5ccncc5)cc34)cc2)CC1 [Example 121, 3-(4-(4-Methylpiperazin-1-yl)benzamido)-N-(pyridin-4-ylmethyl)-1H-indazole-5-carboxamide] |
| 0.025 | 0.0044 | O=C(Nc1n[nH]c2ccc(C(=O)NC(c3cccs3)C3CC3)cc12)c1ccc(N2CCOCC2)cc1 (stereo not drawn) [Example 122, N-(Cyclopropyl(thiophen-2-yl)methyl)-3-(4-morpholinobenzamido)-1H-indazole-5-carboxamide] |
| 4.47 | 0.66 | O=C(Nc1n[nH]c2ccc(CNCc3cccs3)cc12)c1ccc(N2CCOCC2)cc1 [Example 123] |
| > 10 | 2.44 | CCC(NCc1ccc2[nH]nc(NC(=O)c3ccc(N4CCN(C)CC4)cc3)c2c1)c1cccs1 (stereo not drawn) [Example 124] |
| 0.037 | 0.026 | CN1CCN(c2ccc(C(=O)Nc3n[nH]c4ccc(C(=O)NC(c5cccs5)C5CC5)cc34)cc2)CC1 (stereo not drawn) [Example 125, N-(Cyclopropyl(thiophen-2-yl)methyl)-3-(4-(4-methylpiperazin-1-yl)benzamido)-1H-indazole-5-carboxamide] |
| 0.013 | 0.019 | O=C(Nc1n[nH]c2ccc(C(=O)NC(c3cccs3)C3CC3)cc12)c1ccc(N2CCNCC2)cc1 (stereo not drawn) [Example 126, N-(Cyclopropyl(thiophen-2-yl)methyl)-3-(4-(piperazin-1-yl)benzamido)-1H-indazole-5-carboxamide] |
| 0.14 | 0.027 | CC(NC(=O)c1ccc2[nH]nc(NC(=O)c3ccc(N4CCOCC4)cc3)c2c1)c1ccccn1 (stereo not drawn) [Example 127, 3-(4-Morpholinobenzamido)-N-(1-(pyridin-2-yl)ethyl)-1H-indazole-5-carboxamide] |
